Measurements reported in US6423342B1, “Process for the preparation of a solid pharmaceutical dosage form” (R. P. Scherer Corporation, priority 1995, dated 2002).
Where a name gives a salt, the structure may show the parent alone.

Experiments:
Format in all cases: physicochemical
[1] = Effect of pH modification (citric acid level) on stability of selegiline hydrochloride fast-dispersing dosage forms stored at 40° C./80% relative humidity; parameters: unit not given beside the values
Protocol: Gelatin (720 g) and mannitol (540 g) were dispersed in a portion of purified water (15.73 kg) by mixing thoroughly in the bowl of a vacuum mixer. The remaining water (1.5 litres) was added under vacuum while mixing using an anchor stirrer. The mix was then heated to 40° C.±2° C. and homogenized for ten minutes. The mix was cooled down to room temperature. When cooled, a 4500 g portion of the mix was removed into a stainless steel vessel and glycine (360 g), aspartame (90 g), grapefruit flavor (54 g), Opatint yellow (54 g) and citric acid (90 g) were then added sequentially to this portion while homogenizing using a bench top homogenizer. The remainder of the mix was transferred into a second stainless steel vessel. Selegiline hydrochloride (360 g) was then added to the mix in the second vessel and the mix homogenized for ten minutes using a bench top mixer to dissolve the drug. Once dispersion of the coloring agent was complete, the portion of the mix removed to the first vessel was returned to the mixer bowl together with the homogenized mix from the second vessel. The combined mixes were then mixed for at least 20 minutes. The bulk dispersion was then homogenized to ensure that mixing was complete.
(§1) 250 mg of the selegiline hydrochloride 2.0% dispersion formed in (a) above was dosed into each one of a series of pre-formed blister pockets having a pocket diameter of 12-mm. The blister laminate comprised 200 μm PVC/30 μm PE/PVDC 90 g per square metre. The product was frozen immediately in a liquid nitrogen freeze tunnel. The frozen product was then stored below −20° C. for a minimum of 24 hours prior to freeze-drying in a freeze drier using a drying temperature of +20° C. and a chamber pressure of 0.5 mbar. The freeze-dried units were then inspected for the presence of critical defects and the remainder of the batch sealed with lidding foil consisting of a paper/foil laminate (20 μm aluminium). Each blister was then coded with a batch number and over-wrapped in a preformed sachet by placing the blister in the sachet and sealing the open end of the sachet completely. Each sachet was then labeled with the product name, batch number, date of manufacture and suppliers name.
A series of dosage forms were manufactured as described in Example 1 but the quantity of citric acid used was varied. The dosage forms were then stored at 40° C./80% relative humidity for up to 7 weeks and the quantity of selegiline hydrochloride in these dosage forms was assayed at regular intervals.

[2] = Solution pH of the dispersion at varied citric acid concentration
[3] = Effect of storage in frozen state prior to drying on selegiline HCl assay of fast-dispersing dosage forms
Protocol: as §1
Two batches of selegiline fast-dispersing dosage forms manufactured as described in Example I were stored at different temperatures in the frozen state prior to drying.

[4] = Physical properties of the dosage form at varied citric acid level; conditions: citric acid levels higher than 0.5%; causing, for instance, cracking and base melting
Source text: It can be seen that a minimum level of 0.5% citric acid is required to inhibit this loss of selegiline.

SMILES: C#CCN(C)C(C)Cc1ccccc1 (single isomer, unassigned; (-)) [selegiline hydrochloride, (−)-N,α-dimethyl-N-2-propynylphenethylamine]
- quantity of selegiline hydrochloride in dosage form ([1]; citric acid 0 % w/w, solution pH 5.38, 1 week at 40° C./80% relative humidity): 3.86
- quantity of selegiline hydrochloride in dosage form ([1]; citric acid 0 % w/w, solution pH 5.38, 2 week at 40° C./80% relative humidity): 3.31
- quantity of selegiline hydrochloride in dosage form ([1]; citric acid 0 % w/w, solution pH 5.38, 4 week at 40° C./80% relative humidity): 3.32
- quantity of selegiline hydrochloride in dosage form ([1]; citric acid 0 % w/w, solution pH 5.38, Time = 0): 4.79
- quantity of selegiline hydrochloride in dosage form ([1]; citric acid 0.25 % w/w, solution pH 4.21, 1 week at 40° C./80% relative humidity): 4.70
- quantity of selegiline hydrochloride in dosage form ([1]; citric acid 0.25 % w/w, solution pH 4.21, 2 week at 40° C./80% relative humidity): 4.67
- quantity of selegiline hydrochloride in dosage form ([1]; citric acid 0.25 % w/w, solution pH 4.21, 4 week at 40° C./80% relative humidity): 4.74
- quantity of selegiline hydrochloride in dosage form ([1]; citric acid 0.25 % w/w, solution pH 4.21, 7 week at 40° C./80% relative humidity): 4.65
- quantity of selegiline hydrochloride in dosage form ([1]; citric acid 0.25 % w/w, solution pH 4.21, Time = 0): 4.95
- quantity of selegiline hydrochloride in dosage form ([1]; citric acid 0.50 % w/w, solution pH 3.82, 1 week at 40° C./80% relative humidity): 4.98
- quantity of selegiline hydrochloride in dosage form ([1]; citric acid 0.50 % w/w, solution pH 3.82, 2 week at 40° C./80% relative humidity): 4.98
- quantity of selegiline hydrochloride in dosage form ([1]; citric acid 0.50 % w/w, solution pH 3.82, 4 week at 40° C./80% relative humidity): 4.98
- quantity of selegiline hydrochloride in dosage form ([1]; citric acid 0.50 % w/w, solution pH 3.82, 7 week at 40° C./80% relative humidity): 4.96
- quantity of selegiline hydrochloride in dosage form ([1]; citric acid 0.50 % w/w, solution pH 3.82, Time = 0): 5.05
- quantity of selegiline hydrochloride in dosage form ([1]; citric acid 1.0 % w/w, solution pH 3.45, 1 week at 40° C./80% relative humidity): 5.03
- quantity of selegiline hydrochloride in dosage form ([1]; citric acid 1.0 % w/w, solution pH 3.45, 2 week at 40° C./80% relative humidity): 5.04
- quantity of selegiline hydrochloride in dosage form ([1]; citric acid 1.0 % w/w, solution pH 3.45, 4 week at 40° C./80% relative humidity): 5.05
- quantity of selegiline hydrochloride in dosage form ([1]; citric acid 1.0 % w/w, solution pH 3.45, 7 week at 40° C./80% relative humidity): 5.00
- quantity of selegiline hydrochloride in dosage form ([1]; citric acid 1.0 % w/w, solution pH 3.45, Time = 0): 5.07
- quantity of selegiline hydrochloride in dosage form ([1]; citric acid 2.0 % w/w, solution pH 3.11, 1 week at 40° C./80% relative humidity): 4.99
- quantity of selegiline hydrochloride in dosage form ([1]; citric acid 2.0 % w/w, solution pH 3.11, 2 week at 40° C./80% relative humidity): 5.01
- quantity of selegiline hydrochloride in dosage form ([1]; citric acid 2.0 % w/w, solution pH 3.11, 4 week at 40° C./80% relative humidity): 5.02
- quantity of selegiline hydrochloride in dosage form ([1]; citric acid 2.0 % w/w, solution pH 3.11, 7 week at 40° C./80% relative humidity): 4.96
- quantity of selegiline hydrochloride in dosage form ([1]; citric acid 2.0 % w/w, solution pH 3.11, Time = 0): 5.04
- Solution pH ([2]; Conc. of citric acid 0 % w/w): 5.38
- Solution pH ([2]; Conc. of citric acid 0.25 % w/w): 4.21
- Solution pH ([2]; Conc. of citric acid 0.50 % w/w): 3.82
- Solution pH ([2]; Conc. of citric acid 1.0 % w/w): 3.45
- Solution pH ([2]; Conc. of citric acid 2.0 % w/w): 3.11
- Assay Selegiline HCI ([3]; Frozen storage temperature −20 ° C. prior to drying, 2 week): 4.97 mg
- Assay Selegiline HCI ([3]; Frozen storage temperature −20 ° C. prior to drying, 4 week): 4.98 mg
- Assay Selegiline HCI ([3]; Frozen storage temperature −20 ° C. prior to drying, Time = 0): 5.01 mg
- Assay Selegiline HCI ([3]; Frozen storage temperature −25 ° C. prior to drying, 1 week): 4.85 mg
- Assay Selegiline HCI ([3]; Frozen storage temperature −25 ° C. prior to drying, 2 week): 4.79 mg
- Assay Selegiline HCI ([3]; Frozen storage temperature −25 ° C. prior to drying, 4 week): 4.74 mg
- Assay Selegiline HCI ([3]; Frozen storage temperature −25 ° C. prior to drying, Time = 0): 4.87 mg
- effect on the physical properties of the dosage form [4]: deleterious effect
